From publication PMC3592886, “Utilization of Quantitative In Vivo Pharmacology Approaches to Assess Combination Effects of Everolimus and Irinotecan in Mouse Xenograft Models of Colorectal Cancer” (PLoS ONE, 2013)

Experiments:
[1] = tested on: HCT8 cells; assay: Sulforhodamine B (SRB) anti-proliferation assay, HCT8; format: cell-based; conditions: RAD (20 nM), SN38 (4 nM) or the combination of the two, Figure 2
Method: Cytoxic effects were determined using the sulforhodamine B (SRB) assay. Briefly, 5000 viable cells were plated into 96-well plates and incubated overnight prior to exposure with different concentrations of drugs. Cells were exposed to increasing concentrations of everolimus (0–200 nM), SN38 (0–8 nM), and combinations of the two. Following a 72 hour incubation, media was removed and cells were fixed with cold 10% trichloroacetic acid for 30 minutes at 4° C. Cells were washed with water and stained with 0.4% SRB for 30 minutes at room temperature. Cells were washed again with 1% acetic acid and stain was solubilized with 10 mM tris at room temperature and read at an OD of 565 nm. […] The resulting Combination Index (CI) was used as a quantitative measure of the degree of interaction between different drugs. A CI value equal to 1 denotes additivity; CI greater than 1, antagonism; CI less than 1, synergism.

[2] = tested on: ribosomal phospho-S6 kinase (pS6RP); assay: Western blot, pS6RP in CRC cell lines; format: cell-based; conditions: everolimus 20 nM, 24 hours, all cell lines
Method: Cells were seeded into 6-well plates 24 hours prior to treatment with each drug alone or in combination for 24 hours. Cells were scraped into RIPA buffer containing protease inhibitors, EDTA, NaF, and sodium orthovanadate. Total protein was determined using the Pierce 660 nm Protein Assay (Pierce, Rockford, IL). Thirty micrograms of total protein was loaded onto a 4–12% gradient gel, electrophoresed and transferred to nitrocellulose using the iBlot system (Invitrogen, Carlsbad, CA). Membranes were blocked for one hour at room temperature with Licor Blocking Buffer (Licor, Lincoln, NE) prior to overnight incubation at 4°C with one of the following antibodies: pS6RP, tS6RP, pAKT, tAKT, pERK, tERK, p21, PARP, actin and α-tubulin (Cell Signaling, Beverly, MA). All antibodies were used at a 1∶1000 dilution except for pERK, which was used at 1∶2000. Following primary antibody incubation, blots were washed in TBS-Tween(0.1%), then incubated with the appropriate secondary antibody at 1∶15,000 (Licor, Lincoln, NE) for one hour at room temperature. After three additional washes, blots were developed using the Licor Odyssey (Licor, Lincoln, NE).

[3] = Human pharmacokinetics of everolimus from the literature; format: in vivo; conditions: humans at the clinically used doses of 5 to 10 mg per day; 75% plasma protein binding used; from data of ref 25, 26
Description: For in vivo studies, we established doses of everolimus and irinotecan to administer to mice that would yield exposures at or below clinically achievable levels. Human pharmacokinetic information on everolimus, [26] and irinotecan/SN38 [27]–[30] was gathered from the literature and is presented in Tables 1 and 2 respectively.

[4] = tested on: HT29 tumor xenografts; assay: Therapeutic study and tumor growth modeling, HT29 tumor xenografts; format: in vivo, mice
Method: (§1) For tumor bearing studies, cells were harvested and resuspended in a 1∶1 mixture of serum-free RPMI and Matrigel (BD Bioscience). One million cells were injected subcutaneously into each rear flank of mice. Tumor volumes, measured by digital calipers, were calculated by V (mm^3) = length x (width)^2 x 0.5236.
(§2) When HT29 and HCT116 tumors reached an average volume of ∼325 mm^3 animals were randomized into four treatment groups (n = 9–10 mice per group): (i) vehicles, (ii) 5 mg/kg everolimus (RAD) by oral gavage (PO) daily, (iii) 10 mg/kg irinotecan (IRI) once weekly by intravenous (iv) tail vein injection, and (iv) a combination of RAD and IRI. Everolimus, diluted in sterile water, and irinotecan, diluted in sterile 0.9% saline, were administered at 4 mL/kg. Animals were treated for 28 days. Tumor volumes and body weights were measured 2–3 times weekly. On day 28 of treatment 3–6 animals per group were sacrificed, approximately 24 hours following everolimus treatment, and tumors harvested for metabolomic analysis.
(§3) Data from the in vivo study was modeled to assess the therapeutic benefit of adding everolimus to irinotecan. The model used was similar to a previously published model for assessing combination therapy. Some modifications were made and details of the model can be found in Supplement S1 (section SA.3.) and Supplement S2. All modeling was performed on individual animal tumor volume data and modeled with SAAM II version 2.1. […]
(§4) are presented in Tables 1 and 2 in Supplement B. Individual fits of the model to the data can also be found in Supplement B. The average growth terms for each tumor type were then fixed at the average parameter value and used to determine the single agent effects (kx) of each compound by fitting the following equation: […] where cx(t) is the concentration of drug x with respect to time. Individual tumors were modeled and the average value of kx determined (Supplement B Tables 1 & 2) for each single agent treatment. This value was used to fit the following equation to the combination tumor growth data to determine the degree of interaction between the two drugs.
(§5) , the interaction term, was determined for each individual tumor for each tumor type and the data is presented in Table 2 in the main text and individual fits can be found in Supplement B.
(§6) We determined that values greater than 1.3 are synergistic, between 1.3 and 0.7 are additive, between 0.7 and 0 are less than additive, and negative values for are antagonistic. These ranges were selected based on the model fits. The CV% for the model fits ranged from 15 to 50 with an average CV% of approximately 30%. Therefore we assume an average variance of 30% making the additive range from 1.3 to 0.7 (1 + 30% and 1- 30%). […]

[5] = tested on: HCT116 tumor xenografts; assay: Therapeutic study and tumor growth modeling, HCT116 tumor xenografts; format: in vivo, mice
Method: as §1, §2, §3, §4, §5, §6

[6] = tested on: HT29 tumors; assay: NMR-based metabolomics of HT29 tumors; format: in vivo, mice; conditions: end of study
Method: as §2
(§7) For metabolomic analysis, animals were fasted for 4 hours then received 250 mg/kg of [1-^13C] glucose (Cambridge Isotopes, Cambridge, MA) by IV injection 60 minutes prior to tumor harvesting. Snap-frozen tumor specimens underwent two-phase acid extraction procedure (using 8% perchloric acid) previously established and extensively published [19]–[22]. Further details may also be found in Supplement S1 (section SA.2.).

[7] = tested on: HCT116 tumors; assay: NMR-based metabolomics of HCT116 tumors; format: in vivo, mice; conditions: end of study
Method: as §2, §7

[8] = everolimus, mice; cited from earlier work
[9] = tested on: HCT116 tumor xenografts; set-up: method as in PMID 19223496, PMID 20124452; conditions: everolimus at 10–12 mg/kg, mice bearing HCT116 tumor xenografts; cited from earlier work

CO[C@H]1C[C@@H]2CC[C@@H](C)[C@@](O)(O2)C(=O)C(=O)N2CCCC[C@H]2C(=O)O[C@H]([C@H](C)C[C@@H]2CC[C@@H](OCCO)[C@H](OC)C2)CC(=O)[C@H](C)/C=C(\C)[C@@H](O)[C@@H](OC)C(=O)[C@H](C)C[C@H](C)/C=C/C=C/C=C/1C [Everolimus, 40-O-(2-hydroxyethyl)-rapamycin]
%Growth Inhibition [1]: 59%
effect on ribosomal phospho-S6 kinase (pS6RP) [2]: able to inhibit
AUCss,free (steady-state free plasma exposure) [3]: 60 to 178 ng·h/mL
k2 (SD), single agent effect ([4]; HT29 (BRAF and PIK3CA mutant), RAD): 0.000263 (0.00015) mL/ng*day-1
average tumor growth inhibition, TGI ([4]; HT29 xenografts, 5 mg/kg everolimus PO daily, 10 mg/kg irinotecan iv once weekly, or combination, 28 days): 40%
k2 (SD), single agent effect ([5]; HCT116 (KRAS and PIK3CA mutant), RAD): 0.000482 (0.00011) mL/ng*day-1
average tumor growth inhibition, TGI ([5]; HCT116 xenografts, 5 mg/kg everolimus PO daily, 10 mg/kg irinotecan iv once weekly, or combination, 28 days): 44%
effects on glucose metabolism [6]: decrease in lactate and glycolysis
effects on glucose metabolism [7]: decrease in lactate and glycolysis
plasma protein binding [8]: 99%
tumor growth inhibition, single agent [9]: 45–55%
